What all share (assay type): functional
In assay [1] the test system is Enterococcus sp. In words: In vitro minimum inhibitory concentration against Enterococcus species; 2-4.
In assay [2] the test system is Streptococcus sp. In words: In vitro minimum inhibitory concentration against Streptococcus species; </=0.06-0.25.
Assay [3] has as its system Staphylococcus aureus. The experiment in a line: In vitro minimum inhibitory concentration against Staphylococcus aureus; 2-4.
Assay [4] has as its system Enterococcus sp. In words: In vitro minimum inhibitory concentration against Enterococcus species; 1-2.
Assay [5] relates to Streptococcus sp. In words: In vitro minimum inhibitory concentration against Streptococcus species.
The subject of assay [6] is Staphylococcus aureus. The experiment in a line: In vitro minimum inhibitory concentration against Staphylococcus aureus; 0.25-1.
The subject of assay [7] is Enterococcus sp. The experiment in a line: In vitro minimum inhibitory concentration against Enterococcus species; 1-4.
Assay [8] relates to Staphylococcus aureus. The experiment in a line: In vitro minimum inhibitory concentration against Staphylococcus aureus; 1-2.
The test system of assay [9] is Enterococcus sp. In words: In vitro minimum inhibitory concentration against Enterococcus species 2-8.
The subject of assay [10] is Streptococcus sp. The experiment in a line: In vitro minimum inhibitory concentration against Streptococcus species; </=0.06-5.
Assay [11] deals with Enterococcus sp. In words: In vitro minimum inhibitory concentration against Enterococcus species; 4-64.
Assay [12] relates to Streptococcus sp. The experiment in a line: In vitro minimum inhibitory concentration against Streptococcus species; 0.5-4.
Assay [13] has as its system Staphylococcus aureus. In words: In vitro minimum inhibitory concentration against Staphylococcus aureus; 1-8.
For assay [14], the system named is Enterococcus sp. The experiment in a line: In vitro minimum inhibitory concentration against Enterococcus species; 0.25->64.
Assay [15] has as its system Streptococcus sp. In words: In vitro minimum inhibitory concentration against Streptococcus species; </=0.06-1.
Assay [16] has as its system Staphylococcus aureus. The experiment in a line: In vitro minimum inhibitory concentration against Staphylococcus aureus; 0.5->64.

Converted amounts (≈) assume the structure as drawn.

For the molecule `COc1ccc(COC[C@H]2O[C@H](O[C@H]3[C@H](O)[C@H](O)[C@@H](Oc4ccc(C[C@H]5NC(=O)[C@H]([C@@H](C)c6ccccc6)NC(=O)CNC(=O)[C@H](CO)NC(=O)[C@@H]([C@@H](O)[C@@H]6CN=C(N)N6[C@H]6O[C@H](CO)[C@@H](O)[C@H](O)[C@@H]6O)NC(=O)[C@H]([C@@H](O)[C@@H]6CN=C(N)N6)NC5=O)cc4)O[C@@H]3CO)[C@@H](O)[C@@H](O)[C@@H]2O)cc1OCc1ccccc1`, the MIC (usually the lowest concentration found to suppress growth) in the assay on Enterococcus sp. [1] is 2 µg/mL (≈ 1.31 µM); in the assay on Streptococcus sp. [2], no more than 0.06 µg/mL; in the assay with Staphylococcus aureus [3], 2 µg/mL (≈ 1.31 µM).

With `COc1ccc2cc(CO[C@H]3[C@H](O)[C@H](O)[C@@H](O[C@H]4[C@H](O)[C@H](O)[C@@H](Oc5ccc(C[C@H]6NC(=O)[C@H]([C@@H](C)c7ccccc7)NC(=O)CNC(=O)[C@H](CO)NC(=O)[C@@H]([C@@H](O)[C@@H]7CN=C(N)N7[C@H]7O[C@H](CO)[C@@H](O)[C@H](O)[C@@H]7O)NC(=O)[C@H]([C@@H](O)[C@@H]7CN=C(N)N7)NC6=O)cc5)O[C@@H]4CO)O[C@@H]3CO)ccc2c1`, the MIC against Enterococcus sp. [4] is 1 µg/mL (≈ 0.682 µM); in the assay with Streptococcus sp. [5] it was no more than 0.06 µg/mL; with Staphylococcus aureus [6], 0.25 µg/mL (≈ 0.171 µM).

Take `C[C@@H](c1ccccc1)[C@@H]1NC(=O)CNC(=O)[C@H](CO)NC(=O)[C@@H]([C@@H](O)[C@@H]2CN=C(N)N2[C@H]2O[C@H](CO)[C@@H](O)[C@H](O)[C@@H]2O)NC(=O)[C@H]([C@@H](O)[C@@H]2CN=C(N)N2)NC(=O)[C@@H](Cc2ccc(O[C@H]3O[C@H](CO)[C@@H](O[C@H]4O[C@H](COCc5ccc(OCc6ccccc6)cc5)[C@@H](O)[C@H](O)[C@@H]4O)[C@H](O)[C@@H]3O)cc2)NC1=O`: the minimum inhibitory concentration (MIC) against Enterococcus sp. [7] is 1 µg/mL (≈ 0.67 µM); against Streptococcus sp. [5], no more than 0.06 µg/mL; in the assay with Staphylococcus aureus [8], 1 µg/mL (≈ 0.67 µM).

As for `COc1ccc2cc(COC[C@H]3O[C@H](O[C@H]4[C@H](O)[C@H](O)[C@@H](Oc5ccc(C[C@H]6NC(=O)[C@H]([C@@H](C)c7ccccc7)NC(=O)CNC(=O)[C@H](CO)NC(=O)C(C(O)[C@@H]7CN=C(N)N7[C@H]7O[C@H](CO)[C@@H](O)[C@H](O)[C@@H]7O)NC(=O)[C@H]([C@@H](O)[C@@H]7CN=C(N)N7)NC6=O)cc5)O[C@@H]4CO)[C@@H](O)[C@@H](O)[C@@H]3O)ccc2c1` (stereo partly drawn), the minimum inhibitory concentration (MIC) in the assay with Enterococcus sp. [9] is 2 µg/mL (≈ 1.36 µM); with Streptococcus sp. [10] it was no more than 0.06 µg/mL; in the assay with Staphylococcus aureus [8] it was 1 µg/mL (≈ 0.682 µM).

For `C[C@@H](c1ccccc1)[C@@H]1NC(=O)CNC(=O)[C@H](CO)NC(=O)[C@@H]([C@@H](O)[C@@H]2CN=C(N)N2[C@H]2O[C@H](CO)[C@@H](O)[C@H](O)[C@@H]2O)NC(=O)[C@H]([C@@H](O)[C@@H]2CN=C(N)N2)NC(=O)[C@@H](Cc2ccc(O[C@H]3O[C@H](CO)[C@@H](O[C@H]4O[C@H](COCc5cccs5)[C@@H](O)[C@H](O)[C@@H]4O)[C@H](O)[C@@H]3O)cc2)NC1=O`, the MIC was 4 µg/mL (≈ 2.87 µM) with Enterococcus sp. [11], 0.5 µg/mL (≈ 0.359 µM) in the assay on Streptococcus sp. [12] and 1 µg/mL (≈ 0.719 µM) against Staphylococcus aureus [13].

Turning to `CCN1CCN(C(=O)N[C@@H](C(=O)N[C@@H]2C(=O)N3[C@@H]2SC(C)(C)[C@@H]3C(=O)O)c2ccccc2)C(=O)C1=O` [PIPERACILLIN], the MIC in the assay with Enterococcus sp. [14] was 0.25 µg/mL (≈ 0.483 µM); against Streptococcus sp. [15] it was no more than 0.06 µg/mL; against Staphylococcus aureus [16] it was 0.5 µg/mL (≈ 0.966 µM).

The record behind these values is ChEMBL document CHEMBL1136816, “Synthesis and evaluation of ether and halogenated derivatives of mannopeptimycin glycopeptide antibiotics” (2003).
